Measured values from paper PMC11699025 (Natural Products and Bioprospecting, 2025).
“And” between values parts separate entries of the source, which are not always exact repeats. Equal values may be shown once.

Legend:
[1] = molecular target: T1, BtCoV Rp3 Mpro (Bat coronavirus Rp3/2004, UniProt P0C6W6); assay: biochemical
[2] = molecular target: T2, SARS-CoV PLpro (Severe acute respiratory syndrome coronavirus, UniProt P0C6X7); assay: biochemical
[3] = molecular target: T3, MERS-CoV PLpro (Middle East respiratory syndrome-related coronavirus, UniProt K9N7C7); assay: biochemical; type: binding
T3 sequence (K9N7C7 1552-1823 limits assumed): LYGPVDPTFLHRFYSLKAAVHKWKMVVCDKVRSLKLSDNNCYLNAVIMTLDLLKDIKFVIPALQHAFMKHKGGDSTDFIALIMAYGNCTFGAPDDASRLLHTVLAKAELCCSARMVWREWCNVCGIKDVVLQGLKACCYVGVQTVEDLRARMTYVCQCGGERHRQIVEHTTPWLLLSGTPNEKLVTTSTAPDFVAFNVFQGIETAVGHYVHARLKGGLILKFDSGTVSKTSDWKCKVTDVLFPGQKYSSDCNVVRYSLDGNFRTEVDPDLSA

[4] = molecular target: T4, SARS-CoV Mpro (Severe acute respiratory syndrome coronavirus, UniProt P0C6X7); assay: biochemical; type: binding
[5] = in vitro; conditions: human
[6] = test system: HCoV-OC43; assay: microbe, parasite or virus in culture; type: cell-based, human coronavirus OC43; conditions: for EC50: Betacoronavirus 1, OC43, RD, 48 h
[7] = molecular target: T5, MERS-CoV Mpro (Middle East respiratory syndrome-related coronavirus, UniProt K9N7C7); assay: biochemical; type: binding
T5 sequence (K9N7C7 3248-3553 limits assumed): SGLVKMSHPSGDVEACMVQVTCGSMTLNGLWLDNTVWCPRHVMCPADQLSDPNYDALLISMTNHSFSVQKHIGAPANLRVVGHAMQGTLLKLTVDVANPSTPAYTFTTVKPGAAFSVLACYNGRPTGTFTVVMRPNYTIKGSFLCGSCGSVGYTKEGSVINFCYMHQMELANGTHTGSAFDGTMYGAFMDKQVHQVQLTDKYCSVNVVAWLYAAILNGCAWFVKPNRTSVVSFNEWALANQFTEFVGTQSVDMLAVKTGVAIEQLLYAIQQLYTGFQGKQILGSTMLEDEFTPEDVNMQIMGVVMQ

[8] = molecular target: T2, SARS-CoV PLpro; assay: biochemical; type: binding
[9] = molecular target: T5, MERS-CoV Mpro; type: binding
[10] = molecular target: T6, BtCoV Rp3 PLpro (Bat coronavirus Rp3/2004, UniProt P0C6W6); assay: biochemical; type: binding
[11] = molecular target: SARS-CoV-2 PLpro WT (Severe acute respiratory syndrome coronavirus 2, UniProt P0DTD1); type: binding
[12] = molecular target: T4, SARS-CoV Mpro; type: binding
[13] = molecular target: T6, BtCoV Rp3 PLpro; type: binding
[14] = test system: RD cells; conditions: concentrations up to 100 µM
[15] = molecular target: T1, BtCoV Rp3 Mpro; assay: biochemical; type: binding
[16] = molecular target: T3, MERS-CoV PLpro; type: binding
[17] = molecular target: T7, SARS-CoV-2 PLpro (Severe acute respiratory syndrome coronavirus 2, UniProt P0DTD1); assay: biochemical; type: binding; conditions: pH 7.4, read-out: ka
[18] = molecular target: T8, SARS-CoV-2 Mpro (Severe acute respiratory syndrome coronavirus 2, UniProt P0DTD1); assay: biochemical
[19] = molecular target: T7, SARS-CoV-2 PLpro; assay: biochemical
[20] = molecular target: T8, SARS-CoV-2 Mpro; assay: biochemical; type: binding; conditions: pH 7.4, read-out: ka

Cc1cc(O)c(O)c(Oc2cc(C)cc(O)c2Oc2cc(C)cc(O)c2O)c1 [Sydowiol B, sydowiol B]
IC50 [1]: 1.16 ± 1.23 µM | IC50 [2]: 2.42 ± 1.1 µM | Kd [3]: 0.45 µM | Kd [4]: 2.54 µM | CC50 at 48 h [5]: > 200 µM | EC50 [6]: 0.69 ± 0.1 µM | Kd [7]: 9.35 µM | Kd [8]: 14.2 µM | Tm value [9]: 47.47 ± 0.33 (1.37) ℃ and 47.33 ± 0.00 (1.23) ℃ and 47.27 ± 0.16 (1.17) ℃ | Kd [10]: 11.8 µM | Tm value [11]: 51.24 ± 0.36 (5.29) ℃ and 50.31 ± 0.06 (4.36) ℃ | Tm value [12]: 57.17 ± 0.19 (1.25) ℃ and 56.82 ± 0.25 (0.90) ℃ and 56.37 ± 0.28 (0.45) ℃ | Tm value [13]: 53.59 ± 0.20 (4.00) ℃ and 53.87 ± 0.13 (4.28) ℃ and 52.79 ± 0.27 (3.20) ℃ | △Tm [13]: 53.59 ± 0.20 (4.00) ℃ and 53.87 ± 0.13 (4.28) ℃ and 52.79 ± 0.27 (3.20) ℃ | influence on cell viability [14]: no influence | Kd [15]: 1.93 µM | Tm value [16]: 57.67 ± 0.32 (2.78) ℃ and 57.20 ± 0.13 (2.31) ℃ and 56.95 ± 0.13 (2.06) ℃

Cc1cc(O)c(O)c(Oc2cc(C)cc(O)c2O)c1 [Violaceol I, violaceol I]
kon [17]: 494 M⁻¹ s⁻¹ | IC50 [18]: 8.27 ± 1.15 µM | kon ([3]; pH 7.4, read-out: ka): 479 M⁻¹ s⁻¹ | kon ([4]; pH 7.4, read-out: ka): 547 M⁻¹ s⁻¹ | CC50 at 48 h [5]: > 100 µM | Selection Index (SI) [6]: >42.02 | EC50 [6]: 2.38 ± 0.02 µM | kon ([7]; pH 7.4, read-out: ka): 454 M⁻¹ s⁻¹ | kon ([8]; pH 7.4, read-out: ka): 516 M⁻¹ s⁻¹ | kon ([10]; pH 7.4, read-out: ka): 551 M⁻¹ s⁻¹ | influence on cell viability [14]: no influence | IC50 [19]: 42.3 ± 1.02 µM | kon ([15]; pH 7.4, read-out: ka): 532 M⁻¹ s⁻¹ | kon [20]: 969 M⁻¹ s⁻¹
